Like-named read-outs stand apart in the source and are kept apart here.
What was measured:
[1] = rat, in vivo; for % Enhancement in bioavailability, BE from Zingiber officinale: 35 mg/kg; for % Enhancement in bioavailability, Carum carvi (Cc) Extr.: 30 mg/kg
Protocol: (§1) Bioenhancers of Zingiber officinale, mean 50% alcoholic extract of fresh ginger. The doses remain unchanged whether the bioenhancers are used alone or in combination.
(§2) The amount of bioenhancers used are given below: • i. from Carum carvi: extract 30 mg/kg body weight (rats); Fraction No. 1: 15 mg/kg body weight (rats) • ii. piperine 8 mg/kg body weight (rats) • iii. Zingiber officinale: 35 mg/kg body weight (rats) • The drug used was rifampicin (40 mg/kg). The drug alone or in combination with the bioenhancers was administered to rats as given below: • Group 1: control • Group 2: Rifampicin alone • Group 3: bioenhancer alone • Group 4: Rifampicin with Carum carvi bioenhancer
(§3) Blood from the control/treated animals at predetermined intervals (0-24 hours) (total 14 timings). Rifampicin was extracted from the blood (plasma) using dichloromethane. […] The mobile phase was phosphate buffer:acetonitrile in a ratio of 40:60, and a flow rate of 1.0 ml/min.

[2] = Enhancement of bioavailability of drugs given to rats with bioenhancers (plasma drug level by HPLC); settings: for % Enhancement in bioavailability, BE from Zingiber officinale: drug with Zingiber officinale 50% alcoholic extract of fresh ginger 35 mg/kg; for % Enhancement in bioavailability, BE from Zingiber officinale / % Enhancement in bioavailability, Piperine as BE / % Enhancement in bioavailability, Carum carvi + Zingiber officinale / % Enhancement in bioavailability, Carum carvi + Piperine: drug dose as in row; for % Enhancement in bioavailability, Piperine as BE: drug with piperine 8 mg/kg; for % Enhancement in bioavailability, Carum carvi (Cc) Frac 1.: nutraceutical with Carum carvi Fraction No. 1 15 mg/kg; for % Enhancement in bioavailability, Carum carvi + Zingiber officinale, Frac 1. (Cc): nutraceutical with Carum carvi Fraction No. 1 and Zingiber officinale; for % Enhancement in bioavailability, Carum carvi + piperine, Frac 1. (Cc): nutraceutical with Carum carvi Fraction No. 1 and piperine; for % Enhancement in bioavailability, Carum carvi (Cc) Extr.: nutraceutical with Carum carvi extract 30 mg/kg; for % Enhancement in bioavailability, Carum carvi + Zingiber officinale, Extr. (Cc): nutraceutical with Carum carvi extract and Zingiber officinale; for % Enhancement in bioavailability, Carum carvi + piperine, Extr. (Cc): nutraceutical with Carum carvi extract and piperine; for % Enhancement in bioavailability, BE from Carum carvi: drug with Carum carvi bioenhancer (aqueous or 50% alcoholic extract 30 mg/kg or Fraction No. 1 15 mg/kg), drug dose mg/kg; for % Enhancement in bioavailability, Carum carvi + Zingiber officinale: drug with Carum carvi bioenhancer and Zingiber officinale 35 mg/kg; for % Enhancement in bioavailability, Carum carvi + Piperine: drug with Carum carvi bioenhancer and piperine 8 mg/kg
Protocol: as §1, §2, §3

Compound	% Enhancement in bioavailability, BE from Carum carvi [1]	% Enhancement in bioavailability, Carum carvi + Piperine [1]	% Enhancement in bioavailability, Carum carvi + Zingiber officinale [1]	% Enhancement in bioavailability, BE from Zingiber officinale [1]	% Enhancement in bioavailability, Carum carvi + Zingiber officinale, Extr. (Cc) [1]	% Enhancement in bioavailability, Carum carvi + Zingiber officinale, Frac 1. (Cc) [1]	% Enhancement in bioavailability, Carum carvi + piperine, Extr. (Cc) [1]	% Enhancement in bioavailability, Carum carvi + piperine, Frac 1. (Cc) [1]	% Enhancement in bioavailability, Carum carvi (Cc) Extr. [1]	also measured
C=CC[C@@H]1/C=C(\C)C[C@H](C)C[C@H](OC)[C@H]2O[C@@](O)(C(=O)C(=O)N3CCCC[C@H]3C(=O)O[C@H](/C(C)=C/[C@@H]3CC[C@@H](O)[C@H](OC)C3)[C@H](C)[C@@H](O)CC1=O)[C@H](C)C[C@@H]2OC [Tacrolimus]	90%	95%	114%	75%	–	–	–	–	–	–
CC(C)C[C@H](N)C(=O)O [Leucine]	–	–	–	24%	35%	40%	29%	32%	19%	–
CN1C(C(=O)Nc2ccccn2)=C(O)c2ccccc2S1(=O)=O [Piroxicam]	Nil	98%	76%	86%	–	–	–	–	–	–
O=C1O[C@H]([C@@H](O)CO)C(O)=C1O [Vit C]	–	–	–	Nil	Nil	Nil	Nil	Nil	Nil	–
Nc1nc2ncc(CNc3ccc(C(=O)N[C@@H](CCC(=O)O)C(=O)O)cc3)nc2c(=O)[nH]1 [Folio Acid]	–	–	–	nil	nil	nil	nil	nil	Nil	–
CC1=C(C(=O)O)N2C(=O)[C@@H](NC(=O)[C@H](N)c3ccc(O)cc3)[C@H]2SC1 [Cefadroxil]	67%	95%	85%	68%	–	–	–	–	–	–
O=C(O)Cc1ccccc1Nc1c(Cl)cccc1Cl [Diclofenac]	Nil	100%	95%	90%	–	–	–	–	–	–
CC(C)[C@H](N)C(=O)O [Valine]	–	–	–	21%	32%	38%	22%	29%	16%	–
CC[C@H]1OC(=O)[C@H](C)[C@@H](O[C@H]2C[C@@](C)(OC)[C@@H](O)[C@H](C)O2)[C@H](C)[C@@H](O[C@@H]2O[C@H](C)C[C@H](N(C)C)[C@H]2O)[C@](C)(O)C[C@@H](C)CN(C)[C@H](C)[C@@H](O)[C@]1(C)O [Azithromycin]	55%	90%	86%	78%	–	–	–	–	–	–
[Cu] [Copper]	–	–	–	nil	Nil	Nil	nil	Nil	nil	–
Vitamin A	–	–	–	Nil	20%	27%	13%	16%	17%	–
CNC(=C[N+](=O)[O-])NCCSCc1ccc(CN(C)C)o1 [Ranitidine]	67%	70%	150%	147%	–	–	–	–	–	–
CCn1cc(C(=O)O)c(=O)c2cc(F)c(N3CCNCC3)cc21 [Norfloxacin]	55%	65%	60%	Nil	–	–	–	–	–	–
COc1ccc2[nH]c([S+]([O-])Cc3ncc(C)c(OC)c3C)nc2c1 (centres unmarked) [Omeprazole]	76%	70%	75%	nil	–	–	–	–	–	–
CC[C@H]1OC(=O)[C@H](C)[C@@H](O[C@H]2C[C@@](C)(OC)[C@@H](O)[C@H](C)O2)[C@H](C)[C@@H](O[C@@H]2O[C@H](C)C[C@H](N(C)C)[C@H]2O)[C@](C)(O)C[C@@H](C)C(=O)[C@H](C)[C@@H](O)[C@]1(C)O [Erythromycin]	70%	100%	105%	68%	–	–	–	–	–	–
CC[C@H](C)[C@H](N)C(=O)O [Isoleucine]	–	–	–	15%	42%	50%	37%	44%	28%	–
C[C@@H]1O[C@@H](OC[C@H]2O[C@@H](Oc3c(-c4ccc(O)c(O)c4)oc4cc(O)cc(O)c4c3=O)[C@H](O)[C@@H](O)[C@@H]2O)[C@H](O)[C@H](O)[C@H]1O [Rutin]	–	–	–	42%	34%	42%	36%	40%	34%	–
C=CC1=C(C(=O)O)N2C(=O)[C@@H](NC(=O)/C(=N\OCC(=O)O)c3csc(N)n3)[C@H]2SC1 [Cefixime]	80%	79%	82%	Nil	–	–	–	–	–	–
N[C@@H]1CON=C1O [Cycloserine]	70%	80%	75%	71%	–	–	–	–	–	–
[Se] [Selenium]	–	–	–	Nil	nil	nil	Nil	nil	Nil	–
CC1=C(/C=C/C(C)=C/C=C/C(C)=C/C=C/C=C(C)/C=C/C=C(C)/C=C/C2=C(C)CCCC2(C)C)C(C)(C)CCC1 [B-carotene]	–	–	–	–	–	–	–	–	–	% Enhancement in bioavailability, BE from Zingiber officinale [2]: 35%; % Enhancement in bioavailability, Piperine as BE [2]: 29%; % Enhancement in bioavailability, Carum carvi (Cc) Frac 1. [2]: 55%; % Enhancement in bioavailability, Carum carvi + Zingiber officinale, Frac 1. (Cc) [2]: 72%; % Enhancement in bioavailability, Carum carvi + piperine, Frac 1. (Cc) [2]: 59%; % Enhancement in bioavailability, Carum carvi (Cc) Extr. [2]: 47%; % Enhancement in bioavailability, Carum carvi + Zingiber officinale, Extr. (Cc) [2]: 63%; % Enhancement in bioavailability, Carum carvi + piperine, Extr. (Cc) [2]: 45%
CS(=O)(=O)Nc1ccc([N+](=O)[O-])cc1Oc1ccccc1 [Nimesulide]	–	–	–	–	–	–	–	–	–	% Enhancement in bioavailability, BE from Carum carvi [2]: 100%; % Enhancement in bioavailability, Carum carvi + Zingiber officinale [2]: 145%; % Enhancement in bioavailability, Carum carvi + Piperine [2]: 140%; % Enhancement in bioavailability, BE from Zingiber officinale [2]: 144%; % Enhancement in bioavailability, Piperine as BE [2]: 132%
NCCCC[C@H](N[C@@H](CCc1ccccc1)C(=O)O)C(=O)N1CCC[C@H]1C(=O)O [Lisinopril]	–	–	–	–	–	–	–	–	–	% Enhancement in bioavailability, BE from Carum carvi [2]: 79%; % Enhancement in bioavailability, Carum carvi + Zingiber officinale [2]: 90%; % Enhancement in bioavailability, Carum carvi + Piperine [2]: 95%; % Enhancement in bioavailability, BE from Zingiber officinale [2]: 76%; % Enhancement in bioavailability, Piperine as BE [2]: 85%
Vit E	–	–	–	–	–	–	–	–	–	% Enhancement in bioavailability, BE from Zingiber officinale [2]: Nil; % Enhancement in bioavailability, Piperine as BE [2]: Nil; % Enhancement in bioavailability, Carum carvi (Cc) Frac 1. [2]: Nil; % Enhancement in bioavailability, Carum carvi + Zingiber officinale, Frac 1. (Cc) [2]: Nil; % Enhancement in bioavailability, Carum carvi + piperine, Frac 1. (Cc) [2]: Nil; % Enhancement in bioavailability, Carum carvi (Cc) Extr. [2]: Nil; % Enhancement in bioavailability, Carum carvi + Zingiber officinale, Extr. (Cc) [2]: Nil; % Enhancement in bioavailability, Carum carvi + piperine, Extr. (Cc) [2]: Nil
CC(C)(C)NCC(O)c1ccc(O)c(CO)c1 (centres unmarked) [Salbutamol]	–	–	–	–	–	–	–	–	–	% Enhancement in bioavailability, BE from Carum carvi [2]: 75%; % Enhancement in bioavailability, Carum carvi + Zingiber officinale [2]: 80%; % Enhancement in bioavailability, Carum carvi + Piperine [2]: 89%; % Enhancement in bioavailability, BE from Zingiber officinale [2]: 78%; % Enhancement in bioavailability, Piperine as BE [2]: 60%
CO/N=C(\C(=O)N[C@@H]1C(=O)N2C(C(=O)O)=C(CSc3nc(=O)c(O)nn3C)CS[C@H]12)c1csc(N)n1 [Cefetrioxone]	–	–	–	–	–	–	–	–	–	% Enhancement in bioavailability, BE from Carum carvi [2]: 72%; % Enhancement in bioavailability, Carum carvi + Zingiber officinale [2]: 75%; % Enhancement in bioavailability, Carum carvi + Piperine [2]: 78%; % Enhancement in bioavailability, BE from Zingiber officinale [2]: Nil; % Enhancement in bioavailability, Piperine as BE [2]: Nil

Reference: patent publication US20080292736A1, “Bioavailability enhancing activity of carum carvi extracts and fractions thereof” (COUNCIL OF SCIENTIFIC AND INDUSTRIAL RESEARCH, priority 2001, published 2008)
